Test results: patent US11531036B2, “Method and apparatus for determining the efficacy of statins for treating inflammatory diseases in individual patients” (Queen Mary University of London, priority 2017, dated 2022)

Legend:
[1] = system: circulating monocytes, neutrophils and platelets; test: Flow cytometry of circulating leukocytes and platelets in inflammatory arthritis; assay type: in vivo, mice; conditions: 0.2 mg/Kg days 3, 5, 7; blood day 8, vs vehicle
[2] = system: joint non-classical monocytes, neutrophils and monocyte-derived macrophages; test: Flow cytometry of leukocytes isolated from inflamed paws/joints; assay type: in vivo, mice; conditions: paws day 8, vs vehicle
Experimental: Front paws were collected on day 8 and digested to liberate infiltrating leukocytes. Leukocyte subsets were defined using antibodies against specific markers and flow cytometry. Trafficking and activation of (A) non-classical monocytes, (B) neutrophils, (C) monocyte-derived macrophages were assessed.
(§1) JCI Insight. 2016; 1(5):e85922.
Paws were harvested and leukocytes isolated as described in Dalli J et al. 2015 (ibid). Briefly, paws were incubated in RPMI-1640 (containing […] collagenase D and 40 µg/mL DNAse I) at 37° C. for 30 minutes with vigorous agitation. Isolated cells were passed through a […] strainer and suspended in RPMI-1640 containing […] and 10% FBS, then centrifugated at 400×g, 10 minutes. Isolated cells were suspended in DPBS−/− containing 0.02% BSA and 1% Fc-blocking IgG (v/v), and incubated with 0.1% Live/Dead stain for 20 minutes on ice. Cells were washed using DPBS−/− and incubated with fluorescent-labelled antibodies for 45 minutes on ice. These were then washed and fixed using 1% paraformaldehyde. Absolute counting beads were used for leukocyte enumeration. Staining was then evaluated using a flow cytometry analyser and analysed using suitable software.
First, the trafficking of non-classical monocytes to the inflamed joints was assessed, given their role in disease onset and propagation of K/B×N serum initiated inflammatory arthritis.

[3] = system: 13-series resolvins (RvT); test: Lipid mediator profiling (LC-MS/MS) of paws in K/BxN serum inflammatory arthritis; assay type: in vivo, mice; conditions: for increase in overall RvT amounts in joints/paws compared with vehicle: paws collected day 8, 24 h after last dose
Experimental: as §1
(§2) Blood and paws were collected either on day 8 after arthritis onset or 2 h after statin injection on day 7.
Ice-cold methanol containing 500 pg of each deuterated (d) internal standard: d8-SSHydroxyeicosatetraenoic, d4-Leukotriene (LT) B4, d5-Lipoxin (LX) A4, d-Prostaglandin (PG) E2 and d5-Resolvin D2, was added to samples. […] J Clin Invest. 2017; 127(1):169-182.
Using multiple reaction monitoring the concentrations of mediators identified in these paws were quantified.

E. coli infections = conditions: atorvastatin and RvTs, additive actions; cited from earlier work
Male C57BL/6 mice = test: K/BxN serum inflammatory arthritis: 26-point clinical score, paw swelling, knee H&E histology; assay type: in vivo; conditions: 0.2 mg/Kg days 3, 5, 7
Experimental: Male C57BL/6 mice (11 weeks old) were procured from Charles River (Kent, UK). All animals were provided with standard laboratory diet and water ad libitum and kept on a 12 h light/dark cycle.
as §1, §2
Arthritis was initiated and mice were treated and disease progression monitored as described above.

[4] = system: 13-series resolvins (RvT) and eicosanoids; conditions: blood 2 h after last statin dose on day 7
[5] = clearance from the circulation; cited from earlier work
[6] = celecoxib 10 mg/Kg 1 h prior to pravastatin or atorvastatin, paws day 8

CC(C)c1c(C(=O)Nc2ccccc2)c(-c2ccccc2)c(-c2ccc(F)cc2)n1CC[C@@H](O)C[C@@H](O)CC(=O)O [atorvastatin]
neutrophil CD11b expression (circulating) [1]: significantly reducing
reduction in CD11b expression on circulating classical monocytes [1]: regulated
reduction in CD11b expression on circulating non-classical monocytes [1]: regulated
reduction in platelet CD62P expression [1]: ~60%
reduction in platelet-monocyte aggregates (both monocyte subsets) [1]: regulated
reduction in platelet-neutrophil aggregates [1]: significantly reducing
reduction in total numbers of non-classical monocytes recruited to the joints ([2]; 0.2 mg/Kg days 3, 5, 7): > 60%
CD11b expression on joint non-classical monocytes ([2]; 0.2 mg/Kg): reduction
MHCII expression on joint non-classical monocytes ([2]; 0.2 mg/Kg): significant reduction
joint neutrophil CD11b and MHCII expression ([2]; 0.2 mg/Kg): did not reach statistical significance
neutrophil trafficking to the joint ([2]; 0.2 mg/Kg): decreased
number of monocyte-derived macrophages in joints and their CD11b and MHCII expression ([2]; 0.2 mg/Kg): significant reduction
increase in overall RvT amounts in joints/paws compared with vehicle ([3]; 0.2 mg/Kg i.v. days 3, 5, 7): 43%
individual RvT increased in paws compared with vehicle ([3]; 0.2 mg/Kg i.v. days 3, 5, 7, paws day 8): increased RvT1, RvT2, RvT3 and RvT4
increased survival (E. coli infections): > 60%
joint swelling (midfoot pad thickness) (Male C57BL/6 mice): reduced joint swelling
H&E knee joint sections: leukocyte infiltration, pannus formation and joint damage (Male C57BL/6 mice; day 8, vs vehicle): reduced leukocyte infiltration, pannus formation and joint damage
maximum disease score (26-point clinical score) (Male C57BL/6 mice; maximum at day 5): 9.1±1.2
decrease in circulating PGD2 [4]: decreased
decrease in circulating PGE2 [4]: decreased

Cc1ccc(-c2cc(C(F)(F)F)nn2-c2ccc(S(N)(=O)=O)cc2)cc1 [celecoxib]
reduction in joint RvT1 concentration compared to statin alone [3, 6]: > 75%
reduction in joint RvT compared to statin alone [3, 6]: ~60%

CC[C@H](C)C(=O)O[C@H]1C[C@H](O)C=C2C=C[C@H](C)[C@H](CC[C@@H](O)C[C@@H](O)CC(=O)O)[C@H]21 [pravastatin]
reduction in CD11b expression on circulating classical monocytes [1]: ~40%
reduction in CD11b expression on circulating non-classical monocytes [1]: ~10%
reduction in platelet CD62P expression [1]: ~70%
reduction in platelet-monocyte aggregates (both monocyte subsets) [1]: ~35%
reduction in platelet-neutrophil aggregates [1]: ~25%
half-life [5]: ~3 h
increase in overall RvT amounts in joints/paws compared with vehicle ([3]; 0.2 mg/Kg i.v. days 3, 5, 7): ~20%
reduction in disease activity compared with vehicle (Male C57BL/6 mice; day 5 through day 7): ~23%
decrease in circulating PGD2 [4]: ~46%
decrease in circulating PGE2 [4]: ~29%
increase in plasma/peripheral blood RvT compared with vehicle [4]: > 100%
